The results in this text go back to paper PMC7053711, “A G protein–coupled receptor mediates neuropeptide-induced oocyte maturation in the jellyfish Clytia” (PLoS Biology, 2020).

The test system of assay [1] is MIHR mutant (n5-23, n5-13) isolated female gonads. The assay can be described thus: Gonad spawning assay, MIHR mutant isolated gonads. The arrangement: species or system Clytia hemisphaerica. The note with it: for Gonads spawning (number) / Percentage of spawning gonads: 0,1uM WPRPa, MIH R K.O. As to the method: We performed a series of oocyte maturation and spawning assays, comparing the responses of wild-type and MIHR mutant isolated gonads and oocytes to different stimuli (Fig 4).
Sexually mature MIHR mutant medusae from colonies n5-13 and n5-23 and wild-type medusae were cultured on the same day–night cycle. Individual gonads were dissected in the evening after afternoon spawning. To test the light response, one group of each was transferred to 100 μL MFSW in wells of 96-well plastic plates, covered overnight, and re-exposed to white light the following day. To test responses to MIH and cAMP, other groups of dissected gonads were cultured overnight in constant light, then transferred to 96-well plastic plates for two hours. MIH was added to wells as an equal volume of 200 nM WPRPamide (GenScript) stock in MFSW was added to give a final concentration of 100 nM. Alternatively, a stock of 20 mM bromo adenosine 3′,5′cyclic monophosphate (Br-cAMP–Fluka; Sigma Aldrich) in distilled water was added to give a final concentration of 4 mM. Gonads were washed after 5 minutes incubation in Br-cAMP. Oocyte maturation was scored after 30 minutes as germinal vesicle breakdown (GVBD), i.e., visible dissolution of the oocyte nuclear membrane upon entry into M phase, which in all cases was followed by spawning about 1 hour later.
Supplementary file pbio.3000614.s013.xlsx: S3 Data Numerical data corresponding to Fig 4A and 4C. The first tab collects all the raw data from 3 independent gonad spawning assays. Information corresponding to the Fisher exact tests is also shown. […] The means and standard deviations were used to prepare the graph in Fig 4C. Information corresponding to the Fisher exact tests is also shown. (XLSX) Click here for additional data file.

The test system of another assay is Clytia MIHR. The assay can be described thus: GPCR deorphanization assay, luminescence response to peptides at 1 μM (CHO-K1 cells, Gα-16, GFP-apoaequorin). The format is cell-based, Clytia hemisphaerica. Particulars: peptide 1E-6M, normalised to Platynereis FLamide receptor + 1 μM AKYFL-NH2, n = 3. The source says: We used a cell culture–based GPCR deorphanization assay to identify the MIH receptor from our candidate shortlist. cDNAs for each candidate were transfected into Chinese Hamster ovary K1 (CHO-K1) cells along with the promiscuous Gα protein Gα-16, and an aequorin-GFP luminescence reporter that measures Ca^2+ mobilization downstream of this heterologous Gα protein [27, 28]. We first screened the 16 candidate Clytia GPCRs against a mixture of 33 synthetic amidated peptides (including MIHs) predicted to be generated from previously identified putative Clytia neuropeptide precursors and one additional one identified from transcriptome data. Given our imperfect knowledge of pro-peptide processing in cnidarians, some of the synthetic peptides may not correspond to endogenous peptides. Only one of the 16 GPCRs was activated by this peptide mixture. This receptor responded well to all 4 synthetic Clytia MIH tetrapeptides, as well as to related Cladonema MIH peptides that can also activate Clytia oocyte maturation, but not to other Clytia peptide mixtures or poorly active MIH penta-/tripeptides. We termed this Clytia GPCR the Maturation Inducing Hormone Receptor (MIHR). The activity of individual peptides at 1 μM to stimulate the MIHR closely matched their in vivo ability to induce oocyte maturation (Fig 1B).
Cell culture GPCR ligand response assays were performed as described. Briefly, CHO-K1 cells were cultured in Ham’s F12 Nut Mix medium (Thermo Fisher Scientific) with 10% foetal bovine serum. Cells were seeded in 96-well plates at approximately 10,000 cells/well and transfected the following day with pcDNA3.1(+) plasmids encoding each of the 16 candidate Clytia GPCRs (S2 Text), the promiscuous Gα-16 protein [65], and a reporter construct GFP-apoaequorin [66] (60 ng each) using the transfection reagent TurboFect (Thermo Fisher Scientific). After 2 days of expression, the medium was removed and replaced with Hank’s balanced salt solution (HBSS) supplemented with 1.8 mM Ca2+, 10 mM glucose, and […] coelenterazine h (Promega, Madison, WI). After incubation at 37 °C for 2 hours, cells were tested by adding synthetic peptides (GenScript) in HBSS supplemented with 1.8 mM Ca2^+ and 10 mM glucose. A list of all synthetic peptides used is provided in S2 Table. Luminescence was recorded for 45 seconds in a plate reader (BioTek Synergy Mx or Synergy H4; BioTek, Winooski, VT). Data were integrated over the 45-second measurement period and recorded as technical triplicates in each case. Data were normalized using the response of Platynereis FLamide receptor to 1 μM AKYFL-NH2 [28]. Dose–response curves were obtained using concentrations between 0.01 nM and 100 μM for each peptide. Data for dose–response curves were recorded in triplicate for each concentration and the experiment was repeated independently 3 times. Dose–response curves were fitted with a four-parameter curve using Prism 6 (GraphPad, La Jolla, CA) and were normalized to the calculated upper plateau values (100% activation).
Supplementary file pbio.3000614.s011.xlsx: S1 Data Numerical data corresponding to Fig 1B. Raw luminescence values obtained in triplicate for each of the neuropeptide combinations tested against the MIHR in the deorphanization assay are provided. In the right-hand table, the raw luminescence values obtained in quadruple for the positive and negative controls are provided. In the lower table, means and standard errors of the mean of the luminescence values obtained for each neuropeptide combination and controls are also shown, as well as the values normalized to the positive control, which were used to prepare the graph shown in Fig 1B. MIHR, MIH receptor. (XLSX) Click here for additional data file.

[2] abbreviates: WPRPa, pooled n=82, Fisher exact test vs WT significant at p < .01.

Entries after “also recorded” stand apart in the source; their conditions may differ. Peptide text beside a SMILES is read from it.

Consider `N=C(N)NCCC[C@H](NC(=O)[C@@H]1CCCN1C(=O)[C@@H](N)Cc1c[nH]c2ccccc12)C(=O)N1CCC[C@H]1C(N)=O` [WPRPa] (H-WPRP-NH2; N-terminus assumed), for which, in assay [1] (replicate 1, total 29), the “Gonads spawning (number)” value is 0 and the “Percentage of spawning gonads” value was determined as 0. Besides, in assay [1] (replicate 2, total 29), the “Gonads spawning (number)” value is on record as 0 and the “Percentage of spawning gonads” value is listed as 0. In assay [1] (replicate 3, total 24), the “Gonads spawning (number)” value came out at 0 and the “Percentage of spawning gonads” value is on record as 0. Besides, the “Percentage of spawning gonads (summary)” value in assay [1] (WPRPa, MIHR K.O., summary of 3 replicates) is listed as 0. In assay [1] (setting [2]), the “Non-spawning gonads, MIHR KO NO” value was determined as 82 and the “Spawning gonads, MIHR KO YES” value was 0. For the same compound, the “oocyte maturation and spawning of MIHR mutant gonads, MIH treatment” value in assay [1] (isolated MIHR mutant gonads, 100 nM WPRPamide) was “MIHR mutant gonads did not respond; also recorded: No oocyte maturation or spawning was observed”. For the same compound, in the assay on Clytia MIHR, the “Normalised response (to positive control), mean” value was 0.381.
